Series [1] relates to BALB/c mice. The series can be described thus: etoposide-induced fatigue model (CTRF animal model), activity, weight and blood chemistry. It counts as in vivo. On the procedure:
An animal model has been developed to screen for drugs which are efficacious in the treatment, alleviation and/or prevention of chronic fatigue syndrome, such as cancer treatment-related fatigue (“CTRF”). […] The animal's overall activity is measured using a running wheel or other method. In addition, the animal's day and night activity profiles are measured to determine when disrupted sleep architecture is present. This is characterized by disruption of the REM sleep as well as fatigue and cognitive dysfunction. The animal's percent daily weight change is also determined. The levels of cytokines such as IL-6 can be measured, since these are typically elevated with chemotherapy treatment. Results can be provided as percent change of total activity, percent change relative to light exposure, percent weight change over a defined time period (day, week), and combinations thereof.
The model can be created using any one of a number of different drugs, alone or in combination with additional therapy, such as one or more other chemotherapeutics or radiation. The in vitro and in vivo models described above can be used to identify compounds that effectively treat CTRF. In one embodiment, etoposide is administered in a dosage of 50 to 60 mg/kg to cause CTRF. In this study etoposide was administered by a single intraperitoneal injection on the first day of the study.
For the etoposide-induced fatigue model (FIGS. 2-7), BALB/c mice (obtained and housed as described above) were divided into groups of 10 animals per group: 1. control (untreated) mice, 2. mice treated with a single intraperitoneal dose of 60 mg/kg etoposide on day 1, and 3. mice treated with a single intraperitoneal dose of 60 mg/kg etoposide on day 1, followed by daily oral doses of pentoxifylline administered as a 1 mg/kg dose in the drinking water throughout the study. The animals were then assessed for their level of activity relative to time of day (day and night); total locomotor activity; blood chemistry (hemoglobin, red blood cells, white blood cells); over time in weeks.

Series [2] relates to female BALB/c mice. The experiment in a line: LPS-induced fatigue model, daily activity counts. It counts as in vivo. The settings on record: single intraperitoneal dose of 2.5 mg/kg lipopolysaccharide vs saline control; FIG. 1. The protocol:
For the LPS-induced fatigue model shown in FIG. 1, […], female BALB/c mice were obtained from Charles River Laboratories (Wilmington, Mass.). The mice were randomized into 2 groups of 10 prior to treatment. Animals were housed 5 per cage in micro-isolators and allowed to acclimatize for 4 days prior to dosing. Animal were given food and water ad libitum with a 12 hour light/12 hour dark schedule.
Animals in the control group were initially injected intraperitoneally with saline. Animals in the LPS group were injected intraperitoneally with a single dose of 2.5 mg/kg lipopolysaccharide on dayl.

Series [3] concerns IL-6. The experiment in a line: IL-6 levels in etoposide-treated animals. The series is classed as in vivo, mice. The settings on record: increasing etoposide dosing (0, 50 or 60 mg/kg); FIG. 3. On the procedure: An animal model has been developed to screen for drugs which are efficacious in the treatment, alleviation and/or prevention of chronic fatigue syndrome, such as cancer treatment-related fatigue (“CTRF”). […] The animal's overall activity is measured using a running wheel or other method. In addition, the animal's day and night activity profiles are measured to determine when disrupted sleep architecture is present. This is characterized by disruption of the REM sleep as well as fatigue and cognitive dysfunction. The animal's percent daily weight change is also determined. The levels of cytokines such as IL-6 can be measured, since these are typically elevated with chemotherapy treatment. […]
For the etoposide-induced fatigue model (FIGS. 2-7), BALB/c mice (obtained and housed as described above) were divided into groups of 10 animals per group: 1. control (untreated) mice, […], […], followed by daily oral doses of pentoxifylline administered as a 1 mg/kg dose in the drinking water throughout the study. The animals were then assessed for their level of activity relative to time of day (day and night); total locomotor activity; blood chemistry (hemoglobin, red blood cells, white blood cells); over time in weeks.

The mark [4] stands for this setting: etoposide, over time in days, FIG. 5.

For the compound `CC(=O)CCCCn1c(=O)c2c(ncn2C)n(C)c1=O` [Pentoxifylline], the total locomotor activity result in series [1] (animals treated with 60 mg etoposide/kg, then daily oral pentoxifylline 1 mg/kg in drinking water, FIG. 6) is “improves activity”. Also, the “12 hour dark activity over time (weeks)” value in series [1] (etoposide treated followed by pentoxifylline 1 mg/kg daily oral vs etoposide treated and untreated control, FIG. 7A) is given as “significantly increase nocturnal activity”. Also, in series [1] (etoposide treated followed by pentoxifylline 1 mg/kg daily oral vs etoposide treated and untreated control, FIG. 7B), the “12 hour light activity over time (weeks)” value is “decrease activity when animals should be sleeping”.
In the case of lipopolysaccharide [LPS], the “total daily activity (counts/group) per day” value in series [2] is given as “decreased activity indicative of fatigue”.
Take `COc1cc([C@@H]2c3cc4c(cc3[C@@H](O[C@@H]3O[C@@H]5CO[C@@H](C)O[C@H]5[C@H](O)[C@H]3O)[C@H]3COC(=O)[C@H]23)OCO4)cc(OC)c1O` [etoposide]: in series [1] (60 mg etoposide/kg single intraperitoneal dose, FIG. 2), the “total locomotor activity over time (weeks)” value is given as “decreased total activity over time of treatment”. Further, in series [1] (60 mg etoposide/kg, 12 hour dark cycle or 12 hour light cycle, FIG. 4), the “fatigue (percent of baseline) over time (weeks)” value was “decreased activity”. In addition, in series [1] (setting [4]), the “activity counts (shift of circadian rhythm)” value is reported as “decreased activity, which was more pronounced during the evening” and the “percent daily weight change (shift of circadian rhythm)” value was “weight loss”. The “dependence of the observed results on anemia (blood chemistry)” value in series [1] (mice treated with etoposide) is recorded as “independent of anemia”. Also, the “levels of IL-6” value in series [3] was “increased levels of IL-6”.

For the origin of these results see patent US20130245047A1, “COMPOSITIONS FOR TREATING CANCER-RELATED FATIGUE AND METHODS OF SCREENING THEREOF” (TENERA THERAPEUTICS, LLC, priority 2011, published 2013).
